Literature values, collected in article PMC4946565 (Bioorganic & medicinal chemistry letters, 2016).

Test system: VMAT2
Settings: selectivity VMAT2 over DAT; ref [4], [9], [10]

CN1[C@@H](CC(=O)c2ccccc2)CCC[C@H]1C[C@H](O)c1ccccc1 [Lobeline, lobeline]
fold higher affinity for VMAT2 compared to DAT: about 100 fold
